Test results from article PMC10177692, “Novel topoisomerase II/EGFR dual inhibitors: design, synthesis and docking studies of naphtho[2′,3′:4,5]thiazolo[3,2-a]pyrimidine hybrids as potential anticancer agents with apoptosis inducing activity” (Journal of Enzyme Inhibition and Medicinal Chemistry, 2023).

Tests used:
[1] = test system: caspase-9; experiment: Caspase-9 ELISA in MCF-7 cells; type: cell-based, human; conditions: for Caspase 9 Conc.(pg/ml): MCF-7, at IC50, control 4.51 ± 0.29
Method: The effect of 6a, 6c and 6i hybrids on caspase-7 and −9 levels in MCF-7 cell line was measured using Human Caspase-7 ELISA Kit (BioVision Inc., Milpitas, CA 95035 USA) and Human Caspase-9 ELISA Kit (EIA-4860, DRG, USA), respectively, and according to the manufacturer’s instructions. The results were expressed as Mean ± SE of three independent experiments.

[2] = biological target: T1, topoisomerase IIα (Homo sapiens, UniProt P11388); experiment: Topoisomerase IIα inhibitory activity (ELISA kit); type: cell-based; conditions: MCF-7 cell line; for % inhibition of topoisomerase IIα activity: compounds at their IC50, compared to control; for concentration of topoisomerase IIα: compounds at their IC50, control 3.663 ± 0.09 ng/ml
T1 construct: it decreases the concentration of topoisomerase iIα in MCF-7 cell line to 1.043 ± 0.10 ng/ml; endogenous in cells; host or cells: MCF-7
Method: Biotin-conjugated antibody was added to each well followed by incubation at 37 °C for 1 h, then the plates were aspirated. Avidin conjugated Horseradish Peroxidase (HRP avidin) solution was added to each well, incubated again at 37 °C for 1 h. TMB substrate was added to the wells and the plate was incubated at 37 °C for 30 min at dark place. The absorbance was read using spectrophotometer at a wavelength of 450 nm.

[3] = test system: MCF-7 cells; experiment: In vitro DNA flow cytometry (cell cycle analysis); type: cell-based, human; conditions: MCF-7, at IC50, 24 h; for DNA content %Pre-G1: control 1.89; for DNA content %G2/M: control 7.68; for DNA content %S: control 35.09; for DNA content %G0-G1: control 57.23
Method: MCF-7 cells were seeded at density of 2 × 10^5 into each well of a 6-well plate. The cells were maintained in Dulbecco’s Modified Eagle’s Medium (DMEM), supplied with 10% foetal bovine serum, and incubated in a humidified atmosphere containing 5% CO2 in air for 24 h at 37 °C. The incubation medium was replaced with a fresh one containing the synthesised hybrids 6a and 6i at their IC50 in DMSO (1% v/v). The cell plates were incubated for 24 h. The cells were washed twice with cold phosphate buffered saline (PBS) then fixed with 70% ice-cold ethanol. Cells washed with PBS at 37 °C for 30 min and recovered by centrifugation at 2000 rpm for 5 min. Cells were stained using DNA fluorochrome propidium iodide (PI). The plates were incubated at room temperature for 20 min in a dark place. Then the cells were investigated with a FACS Calibre flow cytometer (Becton Dickinson, Heidelberg, Germany)[48].

T1 sequence (P11388 whole entry): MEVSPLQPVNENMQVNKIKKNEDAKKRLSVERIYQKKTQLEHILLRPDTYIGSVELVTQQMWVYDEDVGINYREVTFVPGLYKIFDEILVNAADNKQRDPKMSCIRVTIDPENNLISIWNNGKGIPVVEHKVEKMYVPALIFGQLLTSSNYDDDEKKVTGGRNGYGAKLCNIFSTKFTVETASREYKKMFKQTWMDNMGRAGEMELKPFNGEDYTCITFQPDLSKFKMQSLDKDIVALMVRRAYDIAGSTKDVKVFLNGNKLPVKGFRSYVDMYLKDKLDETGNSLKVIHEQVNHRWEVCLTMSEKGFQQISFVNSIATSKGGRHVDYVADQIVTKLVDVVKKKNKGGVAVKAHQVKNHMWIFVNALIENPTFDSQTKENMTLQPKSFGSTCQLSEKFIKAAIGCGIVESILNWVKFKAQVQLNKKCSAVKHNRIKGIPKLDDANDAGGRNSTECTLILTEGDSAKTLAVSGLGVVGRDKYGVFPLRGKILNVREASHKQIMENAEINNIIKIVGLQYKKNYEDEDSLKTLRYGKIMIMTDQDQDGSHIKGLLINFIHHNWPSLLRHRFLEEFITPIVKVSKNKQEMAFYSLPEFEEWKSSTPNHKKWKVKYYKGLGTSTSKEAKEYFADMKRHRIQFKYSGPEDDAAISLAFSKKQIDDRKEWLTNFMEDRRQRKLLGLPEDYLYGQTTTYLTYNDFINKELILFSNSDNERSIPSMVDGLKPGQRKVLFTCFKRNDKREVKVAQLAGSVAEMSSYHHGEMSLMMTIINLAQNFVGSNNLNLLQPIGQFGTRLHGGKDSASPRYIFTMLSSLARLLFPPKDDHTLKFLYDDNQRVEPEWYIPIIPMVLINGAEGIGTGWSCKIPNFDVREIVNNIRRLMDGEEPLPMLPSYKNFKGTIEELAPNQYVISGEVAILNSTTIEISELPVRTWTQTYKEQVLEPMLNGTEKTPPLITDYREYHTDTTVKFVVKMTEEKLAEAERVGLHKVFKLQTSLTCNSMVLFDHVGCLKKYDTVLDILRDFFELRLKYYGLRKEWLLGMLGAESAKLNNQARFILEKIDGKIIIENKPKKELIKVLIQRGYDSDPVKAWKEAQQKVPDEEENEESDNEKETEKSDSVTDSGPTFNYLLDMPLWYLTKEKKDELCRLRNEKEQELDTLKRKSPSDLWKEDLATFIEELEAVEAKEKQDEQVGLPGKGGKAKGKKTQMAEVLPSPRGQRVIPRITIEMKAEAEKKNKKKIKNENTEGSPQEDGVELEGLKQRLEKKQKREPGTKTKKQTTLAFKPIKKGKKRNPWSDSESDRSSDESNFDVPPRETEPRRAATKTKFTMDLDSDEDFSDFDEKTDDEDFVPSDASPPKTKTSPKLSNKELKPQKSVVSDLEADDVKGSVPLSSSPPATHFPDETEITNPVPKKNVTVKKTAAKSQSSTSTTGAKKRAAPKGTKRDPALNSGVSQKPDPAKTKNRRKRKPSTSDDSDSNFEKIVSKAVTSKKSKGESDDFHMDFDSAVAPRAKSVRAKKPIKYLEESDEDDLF

SMILES | Caspase 9 Conc.(pg/ml) [1] | % inhibition of topoisomerase IIα activity [2] | concentration of topoisomerase IIα [2] | DNA content %Pre-G1 [3] | DNA content %G2/M [3] | DNA content %S [3] | DNA content %G0-G1 [3] | Caspase 9 FLD ([1]; MCF-7, at IC50, fold of control)
N#Cc1c(-c2ccc([N+](=O)[O-])cc2)nc2sc3c(n2c1=O)C(=O)c1ccccc1C3=O [Compound 6i, 2–(4-Nitrophenyl)-4,6,11-trioxo-6,11-dihydro-4H-naphtho[’',’':4,5]thiazolo-[3,2-a]pyrimidine-3-carbonitrile] | 32.29 ± 0.33 pg/mL | 71.50% | 1.043 ± 0.10 ng/mL | 45.26% | 2.89% | 51.17% | 45.94% | –
COc1ccc(-c2nc3sc4c(n3c(=O)c2C#N)C(=O)c2ccccc2C4=O)cc1 [Compound 6a, 2–(4-Methoxyphenyl)-4,6,11-trioxo-6,11-dihydro-4H-naphtho[2′,3′:4,5]-thiazolo[3,2-a]pyrimidine-3-carbonitrile] | 21.17 ± 0.38 pg/mL | 35.81% | 2.351 ± 0.21 ng/mL | 33.41% | 34.78% | 28.94% | 36.28% | 4.69 fold
